According to patent EP0250134B1, “Method for combating swine dysentery” (IMCERA Group Inc., priority 1986, dated 1987):

How the values were obtained:
[1] = system: Treponema hyodysenteriae induced swine dysentery; assay: Treponema hyodysenteriae induced swine dysentery, lysocellin in feed, 51-day trial, challenge on study day 22; type: in vivo; settings: for Daily feed / Daily gain / Feed/Gain: infected pigs
Excerpt: One hundred twenty (120) cross-bred barrows and gilts were used in a randomized complete blocks design to evaluate the effect of lysocellin on Treponema hyodysenteriae induced swine dysentery. The swine were divided into 4 groups: (1) non-infected, non-medicated controls, (2) infected non-medicated controls, (3) infected, medicated at 98.43 grams lysocellin/t (100 g/T), and (4) infected, medicated at 196.85 grams lysocellin/t (200 g/T). All were observed through a 51-day trial period. Swine in groups (2)-(4) were challenged with Treponema hyodysenteriae on study day 22 and the post-challenge period data were analyzed for significant differences. A description of the experimental design is summarized as follows:
Comparisons were made on treatment 1 vs. treatments 3 and 4, treatment 2 vs. treatment 3 and 4, and treatment 3 vs. treatment 4. The following observations were made based upon data analyzed: postchallenge performance of swine with respect to daily gain and daily feed gain, number of pigs per pen expressing clinical signs of dysentery during the postchallenge period, number of pig days per pen with clinical signs of dysentery during the postchallenge period, and number of pig days per pen with specified fecal score.
Referring to table 3 and table 4, clinical signs of dysentery observed during the postchallenge period are presented as treatment means of: number of pigs per pen expressing the sign and number of pig days the sign was observed within a pen. The value "pig days" was based on 28 days/pig surviving to the end of the trial or number of days a pig survived during the postchallenge period (for example, 5 pigs/pen on trial for 28 days equals 140 pig days). Removal of pigs from a pen during the trial was taken into account in these calculations.

Treponema hyodysenteriae = assay: in vitro Streak Plate Test Method (inhibition endpoint / MIC on trypticase soy blood agar); type: cell-based; settings: summary of Table 1
Description: The following test procedure was used to evaluate the anti-Treponema hyodysenteriae activity of the compounds in the present invention. This test procedure establishes the lowest concentration of the compounds that will inhibit the growth on cultures of Treponema hyodysenteriae in an in vitro Streak Plate Test Method.
Procedure: Stock solutions containing 10,000, 1,000, 100, 10, 1.0, and 0.1, micrograms per milliliters of the compound to be tested were prepared. The final dilutions to establish the test concentrations in the media were made by placing the correct volume of stock solution in a petri dish, adding the media (trypticase soy blood agar), and mixing before the media solidified. After the media solidified, the test cultures of Treponema hyodysenteriae were streaked onto the surface of the agar. Petri dishes containing media without test samples were also set up as culture controls and are inoculated in the same manner. All inoculated plates were incubated at 39°C in anaerobic jars for 48 hrs. Inhibition endpoints were then determined by observing the test plates for growth or no growth of the test cultures at the various concentrations of the compounds. If the culture growth occured at one concentration but not at the next higher concentration, the inhibitory endpoint or MIC (Minimum Inhibitory Concentration) was considered the higher concentration.
Referring to Table 1, the culture numbers refer to field isolate strains of Treponema hyodysenteriae. These field isolates were isolated in Illinois, Iowa, and Nebraska. The numbers giving the results in the Table are read as follows: the first number for each isolate and compound tested corresponds to the concentration in micrograms per milliliter where growth occurred and the second number corresponds to the concentration in micrograms per milliliter where no growth occurred.

[2] = 196.85 g/t (200 g/T) lysocellin, mean (lower, higher 95% confidence limits), 5 pigs/pen for 28 days = 140 pig days
[3] = postchallenge period 0-7 days, 98.43 g/t (100 g/T) lysocellin
[4] = postchallenge period 0-7 days, 196.85 g/t (200 g/T) lysocellin
[5] = postchallenge period 0-14 days, 98.43 g/t (100 g/T) lysocellin
[6] = postchallenge period 0-14 days, 196.85 g/t (200 g/T) lysocellin
[7] = postchallenge period 0-21 days, 98.43 g/t (100 g/T) lysocellin
[8] = postchallenge period 0-21 days, 196.85 g/t (200 g/T) lysocellin
[9] = postchallenge period 0-28 days, 98.43 g/t (100 g/T) lysocellin
[10] = postchallenge period 0-28 days, 196.85 g/t (200 g/T) lysocellin

For lysocellin, the “Number of Pig Days per Pen with Clinical Signs of Dysentery During the Postchallenge Period: Gauntness” value [1, 2] was 11.17 (5.73,18.30), the “Number of Pig Days per Pen with Clinical Signs of Dysentery During the Postchallenge Period: Lethargic” value [1, 2] was 1.82 (0.07,4.74) and the “Number of Pig Days per Pen with Clinical Signs of Dysentery During the Postchallenge Period: Reddened skin” value [1, 2] was 1.29 (-0.02,3.41). For the same substance, the “Number of Pig Days per Pen with Clinical Signs of Dysentery During the Postchallenge Period: Rough hair coat” value [1, 2] was 9.55 (2.33,21.19), the “Number of Pig Days per Pen with Clinical Signs of Dysentery During the Postchallenge Period: Weak” value [1, 2] was 0.13 (-0.35,0.94) and the mortality ([1]; infected pigs fed lysocellin) was “prevented mortality”. For the same substance, the “anorexia (clinical sign)” value ([1]; infected pigs receiving either level of lysocellin, postchallenge period) was “No pigs receiving lysocellin appeared anorexic”, the feed efficiency ([1]; pigs receiving lysocellin (either level) vs infected control pigs) was “superior (P<.05)” and the “cumulative average daily gain” value ([1]; pigs receiving lysocellin (either level) vs infected nonmedicated pigs, each period (7, 14, 21 and 28 days)) was “improved (P<.05) over that of nonmedicated pigs”. The “fecal condition (number of pen pig days with a specified fecal condition)” value ([1]; pigs receiving lysocellin vs infected non-medicated control pigs, postchallenge period (Table 5, not given)) was “Infected non-medicated control pigs had significantly fewer (P<.05) days of normal feces and more (P<.05) days of water or bloody diarrhea than pigs receiving lysocellin”, the Daily feed [1, 3] was 1.06 kg/day and the Daily gain [1, 3] was 0.35 kg/day. The Feed/Gain [1, 3] was 3.21, the Daily feed [1, 4] was 0.94 kg/day and the Daily gain [1, 4] was 0.41 kg/day. For the same substance, the Feed/Gain [1, 4] was 2.30, the Daily feed [1, 5] was 0.90 kg/day and the Daily gain [1, 5] was 0.22 kg/day. For the same substance, the Feed/Gain [1, 5] was 4.61, the Daily feed [1, 6] was 1.03 kg/day and the Daily gain [1, 6] was 0.35 kg/day. The Feed/Gain [1, 6] was 2.99, the Daily feed [1, 7] was 0.89 kg/day and the Daily gain [1, 7] was 0.28 kg/day. For the same substance, the Feed/Gain [1, 7] was 3.38, the Daily feed [1, 8] was 1.07 kg/day and the Daily gain [1, 8] was 0.42 kg/day. The Feed/Gain [1, 8] was 2.55, the Daily feed [1, 9] was 0.99 kg/day and the Daily gain [1, 9] was 0.33 kg/day. It also gave a Feed/Gain [1, 9] of 3.01, a Daily feed [1, 10] of 1.15 kg/day and a Daily gain [1, 10] of 0.45 kg/day. The Feed/Gain [1, 10] was 2.55 and the “activity compared to the controls” value (Treponema hyodysenteriae) was “comparable activity”.
